{"source": "patent US20210095293A1", "about": "“METHODS OF TREATING CANCERS WITH GPR132 INHIBITORS” (The Board of Regents of the University of Texas System, priority 2016, published 2021)", "assay_type_in_all_cases": "cell-based, mouse", "key": {"[1]": {"system": "Gpr132", "test": "calcium mobilization assay in BMDMs", "conditions": "WT or Gpr132-KO BMDMs stimulated with 25 mM", "procedure": "FIG. 27. […] WT or Gpr132-KO BMDMs were stimulated with 25 mM lactate (Left) or HCl (Right) (n=3).\nTo determine whether Gpr132 is required for lactate signaling in macrophages, a calcium mobilization assay was performed. […] First, lactate levels in the CM of distinct cancer cell lines were measured using a Vitros 250 chemistry analyzer. […] Second, the effects of blocking lactate production from EO771 and 4T1.2 cells by oxamic acid, an inhibitor of lactate dehydrogenase was tested."}, "[2]": {"system": "breast cancer cells (EO771, 4T1.2)", "test": "Boyden chamber assay, cancer cell invasion (matrigel)", "procedure": "FIGS. 11A-11C. Lactate-activated macrophage promotes cancer cell adhesion, migration and invasion via Gpr132. (FIG. 11A) Adherence assays. 4T1.2 cells were suspended in fibronectin ([…]) pre-coated plates with CM from spleen-derived macrophages (mf) that were treated with 4T1.2 CM or lactate (5 mM) with or without Gpr132 antibody (6 mg/ml) or normal IgG (6 mg/ml) for 10 min. The adhered cells were stained with crystal violet, dissolved in 1% Triton X-100 and measured by OD590. (FIGS. 11B-11C) Boyden chamber assay of cancer cell migration and invasion. 4T1.2 cells (B) or EO771 cells (FIG. 11C) were plated on the upper chamber inserts, with untreated (Control), 4T1.2 CM-activated or lactate-activated spleen-derived WT or Gpr132-KO macrophages plated in the lower chambers. For invasion assay, the inserts were pre-coated with 60 μl matrigel. After migration for 6 hrs (FIG. 11B) or invasion for 24 hrs (FIG. 11C), the migrated or invaded cells were stained with crystal violet and counted as cells per field of view under microscope (n=3-4); For (FIG. 11C), the first bar of each data set of the bar graphs represents the control mf, and the second bar represents Gpr132KO; *p<0.05; **p<0.01; ***p<0.005; ****p<0.001. Scale bar, 500 μm.\nFIGS. 23A-23B. Cancer cell-derived lactate activates macrophages to promote cancer cell migration and invasion via Gpr132. (FIGS. 23A-23B) Boyden chamber assay. EO771 or 4T1.2 cells were cultured in the presence or absence of oxamic acid (90 mM) for 3 days. CM was harvested after the cells were cultured for another 24 hrs without oxamic acid. […] After migration for 6 hrs (FIG. 23A) or invasion for 24 hrs (FIG. 23B), the migrated or invaded cells were stained with crystal violet and counted as cells per field of view under microscope (n=3-4); for (FIG. 23A), the bars in each data set of the bar graph represent, from left to right, control, EO771, Oxamic acid, and Oxamic acid+Lactate; for (FIG. 23B), the bars in each data set of the bar graph represent, from left to right, control, 4T1.2CM, Oxamic acid, and Oxamic acid+Lactate; *p<0.05; ****p<0.001. […]"}, "[3]": {"system": "macrophages", "test": "M2 marker expression in macrophages (Western blot, RT-qPCR, flow cytometry)", "procedure": "After blocking with 10% BSA for 10 min, cells were incubated with anti-CD206 (Rabbit polyclonal, Abcam) or anti-Gpr132 (Rabbit polyclonal, Sigma) antibodies (1:100) for 30 min at 4° C., washed with cold PBS, and then incubated with FITC-conjugated secondary antibodies (1:100) for 30 min at 4° C. After washing twice using cold PBS, cells were analyzed by flow cytometer (Becton Dickinson). RNA was isolated from cells or mouse tissues using Trizol (Invitrogen) following the manufacturer's instructions. RNA (200-500 ng) was first treated with RNase-free DNase I using the DNA-free kit (Ambion) to remove all genomic DNA, and then reverse-transcribed into cDNA using an ABI High Capacity cDNA RT Kit (Invitrogen). The cDNA was analyzed using real-time quantitative PCR (SYBR Green, Invitrogen) with an Applied Biosystems 7900 Sequence Detection System. Each reaction was performed in triplicate in a 384-well format. The expression of each gene was normalized by that of mouse ribosomal protein L19. Samples of 20 μg protein were applied to SDS polyacrylamide gels. After protein transfer, membranes were incubated with antibodies for […] (rabbit polyclonal, Santa Cruz Biotechnology), CD206, Gpr132, or β-actin (mouse monoclonal, Sigma) (1:1000) overnight at 4° C. Membranes were washed, and then incubated with HRP-conjugated secondary antibodies (1:1000) for 1 hr at room temperature before signal detection by chemiluminescence (Pierce). Densitometric quantification was performed by Image-Pro Plus 6.0 software (Media Cybernetics). PathScan Akt Signaling Antibody Array (Cell Signaling) was incubated with macrophage proteins and analyzed following kit instructions."}}}
{"smiles": "CC(O)C(=O)O", "note": "(centres unmarked) [lactate]", "values": [{"measurement": "effect of Gpr132 deletion on triggered calcium mobilization", "setting": "[1]", "value": "compromised"}, {"measurement": "breast cancer cell invasion induced by activated macrophages, Gpr132 deletion", "setting": "[2]; EO771 cells, 24 hrs, Gpr132-KO macrophages", "value": "completely abrogated"}, {"measurement": "rescue of invasion by addition to oxamic acid-pretreated cancer cell CM", "setting": "[2]; exogenous lactate, WT macrophages", "value": "restored"}, {"measurement": "expression of M2 markers (CD206, GM-CSF, CCL17) in WT macrophages", "setting": "[3]; exogenous lactate 5 mM 24 hrs (Western) or 25 mM 6 hrs (RT-qPCR), WT", "value": "increased"}, {"measurement": "effects on M2 markers in Gpr132-KO macrophages", "setting": "[3]; exogenous lactate, Gpr132-KO", "value": "absent or largely attenuated"}]}
